The numbers were not newly measured in patent US20170239455A1 (priority 2014, published 2017), which cites them from elsewhere.

In the data set the test system is virus Ebola.

Consider `II` [molecular iodine], for which the “effectiveness against the virus” value is recorded as “effective”.
